Assay results published in US20180036234A1, “TREATMENT OF BONE FRACTURES AND DEFECTS” (Entera Bio Ltd., priority 2015, published 2018).
“And” between values parts separate entries of the source, which are not always exact repeats. Equal entries are not always repeated.

What was measured:
[1] = Dissolution test of tablets in simulated gastric buffer, released SNAC by HPLC; assay type: physicochemical; settings: tablet with 100 mg sodium bicarbonate vs tablet without; simulated gastric buffer pH 2.0, 37° C.; FIG. 15
Method: The tablets were in a form of a homogeneous mixture.
Each tablet formulation was subjected to a dissolution test in 100 ml of simulated gastric buffer (without pepsin), pH 2.0, at 37° C., according to USP 23 Apparatus 2 (paddle) with 50 rotations per minute. The amount of released SNAC in each sample was determined chromatographically, using an HPLC apparatus with Cosmosil™ 5 C18-MS-II (4.6 ID×250 mm) column. Mobile phase consisted of 50% acetonitrile and 50% phosphoric acid solution (0.1%). Flow rate was 1 ml/minute and injection volume was 25 μl. Amount of released SNAC was calculated as a percentage of the amount of SNAC in the formulation.

[2] = Pharmacokinetic study of oral teriparatide tablet (0.75 mg) in healthy volunteers; assay type: in vivo, human
Method: An open label comparative pharmacokinetic study was performed in healthy volunteers over the course of 3 months. Each volunteer received—in each of two visits—the same oral tablet containing 0.75 mg of teriparatide, a recombinant form of parathyroid hormone (1-34).
(§1) The formulation was composed of teriparatide (0.75 mg), SNAC (sodium 8-N-(2-hydroxybenzoyl) aminocaprylate), soybean trypsin inhibitor (SBTI) and a small amount of magnesium stearate.
Tablets were administered in the morning after an 8-hour overnight fast and immediately followed by 150 ml of water. At each visit a standard meal was provided 3 hours after drug administration. […] There was a two weeks period between the visits.
(§2) To determine parathyroid hormone(1-34) (PTH(1-34)) concentrations, blood samples (4 ml each) were drawn via an indwelling catheter from the forearm vein at predetermined time points during each visit. The cannula was flushed with 1.5 ml normal saline after each sampling. In addition, to avoid sample dilution, 1 ml of blood was drawn and discarded before the next sample. The blood samples were taken at following times: baseline (predose), 10 minutes, 15 minutes, 20 minutes, 30 minutes, 45 minutes, 60 minutes, 75 minutes, 90 minutes, 105 minutes, 2 hours, 3 hours, 4 hours and 5 hours post-administration. Each blood sample was collected into a single tube containing EDTA (ethylenediaminetetraacetic acid) and placed on ice. Within 15 minutes of blood collection, samples were centrifuged for 10 minutes at 4° C. (2500 rotations per minute) and the plasma was separated and divided into two or three aliquots. Each aliquot was transferred into appropriately labeled polypropylene tubes and stored at approximately −20° C. pending analysis. PTH(1-34) levels were measured using an IDS-iSYS automated assay for the measurement of intact PTH(1-34) in human plasma or serum.

[3] = Phase I clinical study of oral teriparatide formulations, plasma PTH(1-34) versus subcutaneous injection; assay type: in vivo, human
Method: A Phase I clinical study of exemplary oral formulations comprising teriparatide (parathyroid hormone (1-34)) was conducted at the Hadassah Clinical Research Center. 42 healthy volunteers were included throughout the study.
The formulation was composed of teriparatide (200, 400, 680, 1400 or 1800 μg), SNAC (sodium 8-N-(2-hydroxybenzoyl) aminocaprylate), soybean trypsin inhibitor and magnesium stearate.
Tablets were administered in the morning after an 8-hour overnight fast and immediately followed by 150 ml of water. At each visit a standard meal was provided 3 hours after drug administration.
as §2, with “hormone” for “hormone(1-34) (PTH(1-34))”, “points.” for “points during each visit.”, “(predose),” for “(predose), 10 minutes,”, “15” for “15 minutes, 20”
Oral administration of teriparatide was performed as described hereinabove at doses of 200, 400, 680, 1400 or 1800 μg. The Cmax of PTH(1-34) for each orally administered dose was compared with the Cmax of PTH(1-34) for subcutaneous injection of 20 μg teriparatide.

cAMP = test: Plasma cAMP levels after oral or subcutaneous teriparatide; assay type: in vivo, human; settings: FIG. 4
Method: In addition, plasma levels of cAMP, a known marker of PTH activity, were determined in order to confirm biological activity of administered PTH. cAMP plasma levels were measured following oral administration of 680 μg teriparatide or subcutaneous injection of 20 μg teriparatide, as described hereinabove.

[4] = Pharmacokinetic study of oral teriparatide tablet co-administered with water or sodium bicarbonate solution; assay type: in vivo, human; settings: oral tablet 0.75 mg teriparatide with 150 ml of 3 mg/ml sodium bicarbonate solution, in comparison with 150 ml water; FIG. 16
Method: An open label comparative pharmacokinetic study was performed on ten healthy volunteers. On different visits, each volunteer received the same oral tablet containing 0.75 mg of teriparatide, a recombinant form of parathyroid hormone (1-34) (PTH(1-34)). In the first visit, the tablet was administered with 150 ml water, whereas in the second visit the tablet was administered with 150 ml of 3 mg/ml sodium bicarbonate aqueous solution.
as §1
Tablets were administered in the morning after an 8-hour overnight fast. At each visit a standard meal was provided 3 hours after drug administration. […] There was a two week period between the two visits.
To determine PTH(1-34) concentrations, blood samples were drawn and PTH(1-34) levels were measured using an IDS-iSYS automated assay, using procedures described in Example 1 hereinabove. Relative absorption was determined based on the AUC (area under curve) parameter.

[5] = oral tablet 0.75 mg teriparatide with SNAC, SBTI, magnesium stearate, fasted healthy volunteers, plasma PTH(1-34), per subject (A, B, C)
[6] = oral tablet 0.75 mg teriparatide with SNAC, SBTI, magnesium stearate, second visit two weeks later, per subject (A, B, C)

Q: With O=C(O)CCCCCCCNC(=O)c1ccccc1O [SNAC, sodium 8-N-(2-hydroxybenzoyl)aminocaprylate] as the compound, how does the “dissolution of SNAC in tablets” value [1] read?
A: considerably enhanced

Q: And the “soluble fraction of SNAC” value [1]?
A: preserved

Q: What does the source list for CC[C@H](C)[C@H](NC(=O)[C@H](CCC(=O)O)NC(=O)[C@H](CO)NC(=O)[C@@H](NC(=O)[C@@H](N)CO)C(C)C)C(=O)N[C@@H](CCC(N)=O)C(=O)N[C@@H](CC(C)C)C(=O)N[C@@H](CCSC)C(=O)N[C@@H](Cc1cnc[nH]1)C(=O)N[C@@H](CC(N)=O)C(=O)N[C@@H](CC(C)C)C(=O)NCC(=O)N[C@@H](CCCCN)C(=O)N[C@@H](Cc1cnc[nH]1)C(=O)N[C@@H](CC(C)C)C(=O)N[C@@H](CC(N)=O)C(=O)N[C@@H](CO)C(=O)N[C@@H](CCSC)C(=O)N[C@@H](CCC(=O)O)C(=O)N[C@@H](CCCN=C(N)N)C(=O)N[C@H](C(=O)N[C@@H](CCC(=O)O)C(=O)N[C@@H](Cc1c[nH]c2ccccc12)C(=O)N[C@@H](CC(C)C)C(=O)N[C@@H](CCCN=C(N)N)C(=O)N[C@@H](CCCCN)C(=O)N[C@@H](CCCCN)C(=O)N[C@@H](CC(C)C)C(=O)N[C@@H](CCC(N)=O)C(=O)N[C@@H](CC(=O)O)C(=O)N[C@H](C(=O)N[C@@H](Cc1cnc[nH]1)C(=O)N[C@@H](CC(N)=O)C(=O)N[C@@H](Cc1ccccc1)C(=O)O)C(C)C)C(C)C [teriparatide]?
A: time for plasma levels to return to baseline levels after tablet administration ([2]; oral tablet 0.75 mg teriparatide with SNAC and SBTI, plasma): ≤ 60 min; Cmax after 1st administration [2, 5]: 35 picogram/ml; Tmax after 1st administration [2, 5]: 10 min and 15 min; Cmax after 2nd administration [2, 6]: 36 picogram/ml; Tmax after 2nd administration [2, 6]: 20 min; decline of PTH levels following oral administration compared with subcutaneous administration ([3]; oral 1800 μg vs subcutaneous 20 μg teriparatide, FIG. 3): declined considerably more rapidly; Cmax of PTH(1-34) following oral administration, relation to dose ([3]; oral tablets 200, 400, 680, 1400 or 1800 μg teriparatide with SNAC and SBTI, FIG. 2): proportional to the dose; oral dose providing a Cmax equivalent to that of subcutaneous administration of 20 μg teriparatide ([3]; oral tablets with SNAC and SBTI, FIG. 2): roughly 750 μg; plasma cAMP levels (cAMP; oral administration of 680 μg teriparatide (compared with subcutaneous 20 μg)): increased plasma cAMP levels to a similar degree; plasma cAMP levels (cAMP; subcutaneous administration of 20 μg teriparatide (compared with oral 680 μg)): increased plasma cAMP levels to a similar degree; increase in absorption of PTH(1-34) (based on AUC) [4]: about 35%
